According to EPA's ToxValDB 9.5 (doi:10.2903/j.efsa.2013.3352):

Columns and labels:
Apis mellifera = conditions: acute, duration: 48 hours, mortality
Bibionidae = conditions: chronic/long-term; duration: 28 days; other
Colinus virginianus = conditions: for LD50: acute, oral, mortality
Cyprinodon variegatus = conditions: chronic/long-term; duration: 28 days; time to hatch
Daphnia magna = conditions: chronic/long-term; duration: 21 days; reproduction
Oncorhynchus mykiss = conditions: acute; duration: 96 hours; mortality
Oryctolagus sp. = conditions: reproduction developmental
Rattus norvegicus = conditions: acute; oral; mortality
Aphidius rhopalosiphi = test: LR50; higher = less toxic; conditions: acute; duration: 48 hours; mortality
Typhlodromus pyri = test: LR50; higher = less toxic; conditions: chronic/long-term; duration: 14 days; mortality

SMILES: Nc1cc(Cl)nc(C(=O)O)c1Cl [4-Amino-3,6-dichloro-2-pyridinecarboxylic acid]
- LD50 (Apis mellifera; dermal): > 100 µg/piece
- LD50 (Apis mellifera; oral, unspecified): > 120 µg/piece
- NOEC (Bibionidae): 130 mg/L
- LD50 (Colinus virginianus; diet): > 1460 mg/kg-day
- LD50 (Colinus virginianus): > 2250 mg/kg-day
- NOEL (Colinus virginianus; reproduction developmental, reproduction): 190 mg/kg-day
- NOEC (Cyprinodon variegatus): 0.1 mg/L
- NOEC (Daphnia magna): 100 mg/L
- LC50 (Oncorhynchus mykiss): > 100 mg/L
- NOAEL (Oryctolagus sp.; clinical signs): 26 mg/kg-day
- NOAEL (Oryctolagus sp.; no effects): 256 mg/kg-day
- LD50 (Rattus norvegicus): > 5000 mg/kg-day
- LC50 (Tagia sp.; acute, duration: 14 days, mortality): > 1000 mg/kg
- NOEC (Tagia sp.; chronic/long-term, duration: 8 weeks): 3.2 mg/kg
- LR50 (Aphidius rhopalosiphi): > 60 g/ha
- LR50 (Typhlodromus pyri): > 60 g/ha
